These results are taken from patent US11377456B2, “Crystalline form of Remdesivir” (Apotex Inc., priority 2020, dated 2022).

Series [1] is described as follows: PXRD study of crystalline form stability in a 27° C./60% RH stability chamber. The following applies: capped and uncapped samples, at least 5 weeks. It is filed as physicochemical. On the procedure: Remdesivir Form APO-I can be characterized by a PXRD diffractogram comprising, among other peaks, characteristic peaks, expressed in degrees 2θ (±0.2°), at 4.0°, 17.0° and 20.3°. Preferably, the PXRD diffractogram further comprises at least three peaks, expressed in degrees 2θ (±0.2°), selected from the group consisting of 10.4°, 13.0°, 14.1°, 15.3°, 17.5°, 18.3°, 22.1°, 23.9°, 25.1° and 25.9°. More preferably, the PXRD diffractogram further comprises peaks, expressed in degrees 2θ (±0.2°), at 10.4°, 13.0°, 14.1°, 15.3°, 17.5°, 18.3°, 22.1°, 23.9°, 25.1° and 25.9°.
The PXRD diffractogram was recorded on a Bruker D8 Discover powder X-ray diffractometer (Bruker-AXS, Karlsruhe, Germany). The generator was a Micro-focus X-ray source (Incoatec IμS Cu anode, λ=1.54060 Å) with a voltage of 50 kV and current of 1.00 mA. X-rays were focused with a micro mask 0.1 mm plug-in microslit. One frame was collected using a still scan with a PILATUS3 R 100K-A detector at the distance of 154.72 mm from the sample. Raw data was evaluated using the program EVA (Bruker-AXS, Karlsruhe, Germany).

A short description of series [2]: Comparative intrinsic dissolution testing (Wood's apparatus). To be noted: 900 mL distilled water, 37° C., 50 rpm, sample compressed at 1.5 metric tons for 1 minute. It is filed as physicochemical. On the procedure: Intrinsic dissolution rate (IDR) measurements were performed using a Wood's apparatus. Samples were prepared by compressing an amount (267 mg Form II; 258 mg APO-I) of sample at 1.5 metric tons for 1 minute. A dissolution medium consisting of 900 mL distilled water maintained at 37° C., and rotation speed of 50 rpm, was used for each experiment.

As to `CCC(CC)COC(=O)[C@H](C)N[P@](=O)(OC[C@H]1O[C@@](C#N)(c2ccc3c(N)ncnn23)[C@H](O)[C@@H]1O)Oc1ccccc1` [Remdesivir Form APO-I], the “Change in crystalline form by PXRD (polymorphic stability)” value in series [1] was “no change in the crystalline form occurred”. In addition, in series [2], the “Intrinsic Dissolution Rate” value is recorded as 0.013 mg min^−1 cm^−2.
In the case of `CCC(CC)COC(=O)[C@H](C)N[P@](=O)(OC[C@H]1O[C@@](C#N)(c2ccc3c(N)ncnn23)[C@H](O)[C@@H]1O)Oc1ccccc1` [Remdesivir Form II, reference compound], the “Intrinsic Dissolution Rate” value in series [2] came out at 0.0083 mg min^−1 cm^−2.
